From ChEMBL document CHEMBL5678818, “Discovery of potent SOS1 inhibitors that block RAS activation via disruption of the RAS-SOS1 interaction” (Proc Natl Acad Sci U S A, 2019)

Tests used:
[1] = biological target: Homeodomain-interacting protein kinase 1 (Homo sapiens) (UniProt Q86Z02); experiment: Inhibition of HIPK1 (unknown origin) assessed as residual activity at 100 nM by KINOMEscan analysis relative to control
[2] = biological target: T1, Serine/threonine-protein kinase DCLK2 (Homo sapiens) (UniProt Q8N568); experiment: Inhibition of DCAMKL2 (unknown origin) assessed as residual activity at 100 nM by KINOMEscan analysis relative to control
T1 sequence (whole entry): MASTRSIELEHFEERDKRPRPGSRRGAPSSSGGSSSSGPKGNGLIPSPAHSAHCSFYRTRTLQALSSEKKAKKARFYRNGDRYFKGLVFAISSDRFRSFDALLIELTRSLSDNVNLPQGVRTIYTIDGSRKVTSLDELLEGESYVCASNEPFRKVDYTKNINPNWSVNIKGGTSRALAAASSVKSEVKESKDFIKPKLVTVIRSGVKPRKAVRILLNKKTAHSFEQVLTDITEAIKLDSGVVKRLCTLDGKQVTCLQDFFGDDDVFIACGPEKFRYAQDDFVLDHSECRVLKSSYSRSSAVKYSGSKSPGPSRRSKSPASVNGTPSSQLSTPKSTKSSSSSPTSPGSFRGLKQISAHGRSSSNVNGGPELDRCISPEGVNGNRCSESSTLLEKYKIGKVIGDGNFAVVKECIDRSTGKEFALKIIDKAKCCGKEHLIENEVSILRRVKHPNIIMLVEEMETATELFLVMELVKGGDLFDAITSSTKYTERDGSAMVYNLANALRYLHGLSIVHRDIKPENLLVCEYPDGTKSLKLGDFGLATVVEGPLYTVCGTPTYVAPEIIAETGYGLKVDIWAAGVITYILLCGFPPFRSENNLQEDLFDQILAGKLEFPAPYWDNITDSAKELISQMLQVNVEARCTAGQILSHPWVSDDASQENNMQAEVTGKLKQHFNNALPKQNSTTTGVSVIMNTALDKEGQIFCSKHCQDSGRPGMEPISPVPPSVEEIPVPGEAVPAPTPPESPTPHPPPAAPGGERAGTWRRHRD

[3] = biological target: Serine/threonine-protein kinase B-raf (Homo sapiens) (UniProt P15056); experiment: Inhibition of BRAF (unknown origin) assessed as residual activity at 100 nM by KINOMEscan analysis relative to control
Chain of Serine/threonine-protein kinase B-raf (Homo sapiens) (P15056 whole entry): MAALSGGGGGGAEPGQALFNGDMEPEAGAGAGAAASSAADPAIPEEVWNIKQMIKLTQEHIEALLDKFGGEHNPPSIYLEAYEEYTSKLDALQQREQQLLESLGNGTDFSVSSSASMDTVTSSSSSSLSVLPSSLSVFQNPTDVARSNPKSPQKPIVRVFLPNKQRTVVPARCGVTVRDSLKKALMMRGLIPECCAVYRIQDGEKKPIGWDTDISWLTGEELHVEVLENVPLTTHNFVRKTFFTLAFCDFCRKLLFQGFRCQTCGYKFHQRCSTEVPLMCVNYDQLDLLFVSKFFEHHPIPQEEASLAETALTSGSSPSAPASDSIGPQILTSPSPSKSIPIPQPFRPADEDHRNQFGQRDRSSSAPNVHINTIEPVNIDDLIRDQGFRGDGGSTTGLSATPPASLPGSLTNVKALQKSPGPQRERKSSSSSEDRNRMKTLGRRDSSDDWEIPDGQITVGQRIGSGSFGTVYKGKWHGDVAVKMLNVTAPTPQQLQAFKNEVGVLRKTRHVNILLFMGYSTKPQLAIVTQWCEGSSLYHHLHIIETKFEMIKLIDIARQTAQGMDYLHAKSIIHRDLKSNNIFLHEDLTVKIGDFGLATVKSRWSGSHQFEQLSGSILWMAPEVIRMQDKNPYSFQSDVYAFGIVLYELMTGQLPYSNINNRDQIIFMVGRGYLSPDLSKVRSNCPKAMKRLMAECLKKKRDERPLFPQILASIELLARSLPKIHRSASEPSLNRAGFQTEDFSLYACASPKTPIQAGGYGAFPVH

Chain of Homeodomain-interacting protein kinase 1 (Homo sapiens) (Q86Z02 whole entry, looked up): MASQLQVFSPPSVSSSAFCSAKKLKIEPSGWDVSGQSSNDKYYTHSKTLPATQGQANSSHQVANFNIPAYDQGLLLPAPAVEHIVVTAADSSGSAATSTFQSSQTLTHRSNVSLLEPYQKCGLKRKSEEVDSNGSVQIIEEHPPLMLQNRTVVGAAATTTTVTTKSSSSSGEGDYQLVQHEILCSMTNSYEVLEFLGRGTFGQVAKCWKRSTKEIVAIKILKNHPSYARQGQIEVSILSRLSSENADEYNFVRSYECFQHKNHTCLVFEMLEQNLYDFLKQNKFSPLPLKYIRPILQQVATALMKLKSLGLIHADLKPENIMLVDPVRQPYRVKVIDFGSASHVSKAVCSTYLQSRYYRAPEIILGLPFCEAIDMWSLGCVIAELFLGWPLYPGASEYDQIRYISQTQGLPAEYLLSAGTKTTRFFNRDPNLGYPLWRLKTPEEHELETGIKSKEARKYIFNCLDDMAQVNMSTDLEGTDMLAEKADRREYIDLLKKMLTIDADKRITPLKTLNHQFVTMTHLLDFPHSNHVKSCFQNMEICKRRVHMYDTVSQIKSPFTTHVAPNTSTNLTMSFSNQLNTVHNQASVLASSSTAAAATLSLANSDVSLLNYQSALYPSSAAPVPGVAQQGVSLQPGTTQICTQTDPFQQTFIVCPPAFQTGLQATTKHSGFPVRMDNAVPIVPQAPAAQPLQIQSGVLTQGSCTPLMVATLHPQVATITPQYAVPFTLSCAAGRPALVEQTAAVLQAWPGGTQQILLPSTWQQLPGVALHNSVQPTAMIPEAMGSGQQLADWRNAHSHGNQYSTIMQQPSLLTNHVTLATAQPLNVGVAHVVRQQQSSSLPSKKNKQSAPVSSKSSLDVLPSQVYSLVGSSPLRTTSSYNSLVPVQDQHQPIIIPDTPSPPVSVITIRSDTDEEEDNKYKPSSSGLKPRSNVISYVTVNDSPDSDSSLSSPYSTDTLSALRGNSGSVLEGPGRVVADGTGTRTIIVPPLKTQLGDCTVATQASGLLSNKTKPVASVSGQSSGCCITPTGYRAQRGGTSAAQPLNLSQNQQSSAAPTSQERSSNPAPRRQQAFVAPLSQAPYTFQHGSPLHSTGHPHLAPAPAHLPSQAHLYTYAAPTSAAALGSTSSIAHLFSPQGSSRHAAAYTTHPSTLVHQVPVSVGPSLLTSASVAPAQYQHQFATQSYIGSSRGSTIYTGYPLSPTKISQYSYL

COc1cc2ncnc(N[C@H](C)c3cccc4ccccc34)c2cc1OC
Activity [1]: 75% | Activity [2]: 82% | Activity [3]: 88%
